Results reported in the supplement of paper PMC10307832.

Experiments:
Experiment in all cases: relative viability (nuclei count vs DMSO), 5 days (fraction); higher = more cells survive
Vemurafenib + Linsitinib = compound: CCCS(=O)(=O)Nc1ccc(F)c(C(=O)c2c[nH]c3ncc(-c4ccc(Cl)cc4)cc23)c1F [Vemurafenib] + C[C@]1(O)C[C@@H](c2nc(-c3ccc4ccc(-c5ccccc5)nc4c3)c3c(N)nccn32)C1 [Linsitinib] (partner 1 µM)
Procedure, shortened: (§1)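 Each reported value is a median over duplicate plates. It expresses relative viability: treated-well nuclei count divided by vehicle-well nuclei count. Lung cancer cell lines in 1536-well plates were dosed by pin tool a day after seeding, alone with one drug or with a fixed anchor-drug dose plus five library-drug doses (not always all listed) in √10 steps, and nuclei were counted after 5 days.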

Vemurafenib + Decitabine = compound: CCCS(=O)(=O)Nc1ccc(F)c(C(=O)c2c[nH]c3ncc(-c4ccc(Cl)cc4)cc23)c1F [Vemurafenib] + Nc1ncn([C@H]2C[C@H](O)[C@@H](CO)O2)c(=O)n1 [Decitabine] (partner 2 µM)
Procedure, shortened: as §1

Alpelisib + Olaparib = compound: Cc1nc(NC(=O)N2CCC[C@H]2C(N)=O)sc1-c1ccnc(C(C)(C)C(F)(F)F)c1 [Alpelisib] + O=C(c1cc(Cc2n[nH]c(=O)c3ccccc23)ccc1F)N1CCN(C(=O)C2CC2)CC1 [Olaparib] (partner 8 µM)
Procedure, shortened: as §1

Alpelisib + Navitoclax = compound: Cc1nc(NC(=O)N2CCC[C@H]2C(N)=O)sc1-c1ccnc(C(C)(C)C(F)(F)F)c1 [Alpelisib] + CC1(C)CCC(c2ccc(Cl)cc2)=C(CN2CCN(c3ccc(C(=O)NS(=O)(=O)c4ccc(N[C@H](CCN5CCOCC5)CSc5ccccc5)c(S(=O)(=O)C(F)(F)F)c4)cc3)CC2)C1 [Navitoclax] (partner 0.5 µM)
Procedure, shortened: as §1

Cell Line	relative viability (Vemurafenib + Linsitinib; first compound 0.03162 µM)	relative viability (Vemurafenib + Linsitinib; first compound 0.1 µM)	relative viability (Vemurafenib + Linsitinib; first compound 0.3162 µM)	relative viability (Vemurafenib + Linsitinib; first compound 1 µM)	relative viability (Vemurafenib + Decitabine; first compound 0.03162 µM)	relative viability (Vemurafenib + Decitabine; first compound 0.1 µM)	relative viability (Vemurafenib + Decitabine; first compound 0.3162 µM)	relative viability (Vemurafenib + Decitabine; first compound 1 µM)	relative viability (Alpelisib + Olaparib; first compound 0.04 µM)	relative viability (Alpelisib + Olaparib; first compound 0.1265 µM)	relative viability (Alpelisib + Olaparib; first compound 0.4 µM)	relative viability (Alpelisib + Olaparib; first compound 1.265 µM)	relative viability (Alpelisib + Olaparib; first compound 4 µM)	relative viability (Alpelisib + Navitoclax; first compound 0.04 µM)	relative viability (Alpelisib + Navitoclax; first compound 0.1265 µM)	relative viability (Alpelisib + Navitoclax; first compound 0.4 µM)	relative viability (Alpelisib + Navitoclax; first compound 1.265 µM)	relative viability (Alpelisib + Navitoclax; first compound 4 µM)
HCC-15	0.855	0.743	0.964	0.824	0.561	0.64	0.59	0.77	0.685	0.765	0.738	0.616	0.509	0.627	0.7	0.74	0.598	0.454
NCI-H1437	0.972	0.959	0.918	0.871	0.523	0.565	0.531	0.579	0.64	0.684	0.679	0.627	0.644	1.09	1.13	1.03	1.01	1.03
A-427	1.09	1.1	1.03	1.15	0.553	0.456		0.591	0.721	0.724	0.762	0.609	0.613	0.837	0.884	0.997	0.874	0.884
NCI-H1975	1	0.962	0.725	1.05	0.419	0.418	0.345	0.32	0.689	0.859	0.838	0.563	0.625	0.963	1.06	1.03	0.788	0.511
SK-LU-1	0.93	0.958	0.915	1.03	0.638	0.588	0.504	0.56	0.491	0.472	0.532	0.378	0.41	0.781	0.788	0.845	0.814	0.654
NCI-H520	1.06	1.13	1.02	0.956	0.463	0.482	0.479	0.519	0.285	0.298	0.331	0.231	0.272	1.02	0.905	1.07	1.03	0.822
NCI-H1755	0.946	0.889	0.978	0.91	0.705	0.616	0.73	0.711	0.928	0.892	0.917	0.818	0.788	1.05	0.979	1.04	0.93	0.705
NCI-H1734	0.859	0.847	0.759	0.808	0.569	0.486	0.506	0.506	0.584	0.328	0.61	0.425	0.35	0.835	0.758	0.794	0.714	0.47
BEN	0.913	0.921	0.683	0.724	0.577	0.756	0.366	0.675	1.18	1.18	1.22	1.02	0.879	0.0833	0.0642	0.161	0.0705	0.0615
NCI-H647	1.08	0.971	1.03	1.14	0.478	0.396	0.38	0.444	0.534	0.485	0.569	0.487	0.436	1.04	1.03	1.22	0.83	0.948
HCC-44	0.612	0.67	0.709	0.716	0.869	1.02	0.949	1	0.979	0.943	1.07	0.979	0.936	0.949	0.983	1.04	0.802	0.735
NCI-H1792	0.505	0.417	0.484	0.516	0.539	0.564		0.477	0.48	0.528	0.68	0.36	0.205	0.619	0.582	0.702	0.514	0.336
NCI-H2347	0.941	1.01	0.76	0.964	0.588	0.538	0.562	0.613	0.632	0.61	0.89	0.481	0.515	0.919	0.745	0.868	0.665	0.605
LC-2-ad	0.801	0.755	0.873	0.749	0.8	0.706	0.859	0.796	0.718	0.379	0.78	0.733	0.651	0.441	0.394	0.364	0.332	0.285
COR-L 105	1		1.3	1.17	0.556		0.645	0.651	0.706	0.646	0.755	0.686	0.642	0.607	0.633	0.728	0.615	0.554
NCI-H838	0.979	1.01		1.14	0.467	0.485	0.54	0.598	0.774	0.754	0.744	0.637	0.613	1.02	1.08	1.15	1.04	1.01
COR-L23	0.774	0.733	0.789	1.01	0.417	0.464	0.336	0.424	0.327	0.338	0.573	0.294	0.253	0.923	1.02	1.07	0.789	0.753
EMC-BAC-2	0.798	0.695	0.807	0.807	0.958	0.934		0.96	0.492	0.382	0.498	0.347	0.318	1.11	1.08	1.17	0.956	0.879
